# According to patent publication EP0404162A1, “Composition for treating pigmentation” (priority 1989, dated 1990):
# Key:
# [1] = Toxicity (LD50), subcutaneous administration, mice; details: mouse, in vivo, sc, read-out: LD₅₀
# Description: (§1) The toxicity of kojic acid which is the effective ingredient of the present invention is extremely low; LD₅₀ is 2.050 mg/kg in mice and 2.260 mg/kg in rats, by subcutaneous administration. Therefore, the present invention is quite safe as a medicament.
# [2] = Toxicity (LD50), subcutaneous administration, rats; details: rat, in vivo, sc, read-out: LD₅₀
# Description: as §1
compound,measurement,setting,value
"O=c1cc(CO)occ1O [kojic acid, 5-oxy-2-oxymethyl-γ-pyrone]",LD50,[1],2.05 mg/kg
same,LD50,[2],2.26 mg/kg
